Converted amounts (≈) assume the structure as drawn. Where two headings read alike, the source gives them in different places. Positions of bridges follow the written chain, without caps; N, C: chain ends. Residues, ends and D or L forms follow the SMILES beside them.
Legend:
S. aureus 209P = type: cell-based, Staphylococcus aureus; conditions: 24 h
Description: (§1) The antimicrobial activity of the peptides was determined using two-fold serial dilutions in sterile 96-well flat-bottom polystyrene microplates (Eppendorf, Hamburg, Germany) (Cat. No. 0030730011), as previously described. The following strains of bacteria were used: E. coli ATCC 25922, E. coli ML35p (ATCC collection), E. coli BW 25113 (Keio collection), Pseudomonas aeruginosa PAO1 (ATCC collection), P. aeruginosa ATCC 27853, Klebsiella pneumoniae ATCC 700603, Staphylococcus aureus 209P (ATCC collection), S. aureus ATCC 29213, and Micrococcus luteus B-1314 (VKM collection). Acinetobacter baumannii (strain XDR CI 2675) was provided by the I.M. Sechenov First Moscow State Medical University hospital. After a 24 h incubation period, the metabolic activity of the bacteria was assessed by adding 20 µL of a redox indicator, resazurin (Sigma-Aldrich, St. Louis, MO, USA), at a concentration of 0.1 mg/mL, to the wells. The plate was then incubated for a further two hours. The minimum inhibitory concentration (MIC) was determined as the lowest concentration of the peptide at which no color change in the resazurin indicator was observed. The results were presented as median values, which were determined based on at least three independent experiments carried out in triplicate.

S. aureus ATCC 29213 = type: cell-based, Staphylococcus aureus; conditions: ATCC 29213, 24 h
Description: as §1

[1] = test system: K. pneumoniae ATCC 700603; type: cell-based, Klebsiella pneumoniae; conditions: ATCC 700603, 24 h
Description: as §1

E. coli BW 25113 = type: cell-based; conditions: two-fold serial dilutions, 24 h incubation, resazurin read-out; median of at least three independent experiments in triplicate
Description: as §1

E. coli ML35p = type: cell-based
Description: as §1

[2] = test system: Acinetobacter baumannii (strain XDR CI 2675); type: cell-based
Description: as §1

E. coli ATCC 25922 [3] = type: cell-based; conditions: ATCC 25922, 24 h
Description: as §1

all the test strains = type: cell-based; conditions: geometric mean over the 10 test strains
Description: as §1

M. luteus B-1314 = type: cell-based, Micrococcus luteus; conditions: B-1314, 24 h
Description: as §1

[4] = test system: human keratinocyte cell line (HaCaT); experiment: Cytotoxicity MTT assay; type: cell-based; conditions: 18 h, 128
Description: In order to evaluate the cytotoxicity of the peptides against a human keratinocyte cell line (HaCaT, Cat. No. 300493) (Cell Lines Service, Köln, Germany), the colorimetric 3-(4,5-dimethylthiazol-2-yl)-2,5-diphenyltetrazolium bromide (MTT) dye reduction assay was performed, as described in a previous publication. Wells containing no peptide were used as a 100% survival control. Each peptide was tested in two separate experiments to ensure the reliability of the results.

[5] = test system: freshly isolated human erythrocytes (hRBCs); experiment: Hemolysis assay (hemoglobin release); type: cell-based; conditions: red cells of human, 64
Description: To assess the hemolytic activity of the compounds, freshly isolated human erythrocytes (hRBCs) were used according to the methodology described in a previous study. Melittin was used as a positive peptide control that induces significant hemolysis. Isotonic phosphate buffer (PBS) served as a negative control, while 0.1% Triton X-100 solution was used as a control for complete hemolysis.

P. aeruginosa PAO1 = type: cell-based, Pseudomonas aeruginosa; conditions: PAO1, 24 h
Description: as §1

P. aeruginosa ATCC 27853 = type: cell-based, Pseudomonas aeruginosa; conditions: ATCC 27853, 24 h
Description: as §1

E. coli ATCC 25922 [6] = experiment: Systemic septicemia infection mice model; type: in vivo; conditions: BALB/c mice n = 5, i.p. E. coli ATCC 25922 10^6 CFU with mucin, 7 days
Description: Experiments were performed with male and female 8–10-week-old BALB/c mice (22–24 g, “Andreevka” laboratory animal nursery FMBA, Russia) according to the previously described method. Briefly, a total of 3 groups of 5 mice per group were infected by intraperitoneal (i.p.) injection of the bacterial inoculum (E. coli ATCC 25922), 10^6 colony forming units (CFU) per animal, in the presence of mucin. All the animals received two i.p. injections: 1 h and 4 h after bacterial challenge. The first group received ciprofloxacin (Sigma-Aldrich, St. Louis, MO, USA) as a positive control at a dose of 10 mg/kg per injection. The second group received peptide [V16R] at a dose of 5 mg/kg per injection. The third group received PBS as a vehicle control. Animals were monitored for 7 days post-infection. All the surviving mice were euthanized by CO2 asphyxiation. The spleen was aseptically removed, homogenized, serially diluted, and plated on Endo agar to detect CFU in a sample.

SMILES	MIC, S. aureus 209P (S. aureus 209P)	MIC, S. aureus ATCC 29213 (S. aureus ATCC 29213)	MIC, K. pneumoniae ATCC 700603 [1]	MIC, E. coli BW 25113 (E. coli BW 25113)	MIC, E. coli ML35p (E. coli ML35p; ML35p, 24 h)	MIC, A. baumannii ([2]; strain XDR CI 2675, 24 h)	MIC, E. coli ATCC 25922 (E. coli ATCC 25922 [3])	MIC (GM), geometric mean of the peptide's MICs against all the test strains (all the test strains)	MIC, M. luteus B-1314 (M. luteus B-1314)	Cell Viability, % (128 μM) [4]	Hemolytic activity, % (64 μM) [5]	MIC, P. aeruginosa PAO1 (P. aeruginosa PAO1)	MIC, P. aeruginosa ATCC 27853 (P. aeruginosa ATCC 27853)	Deaths of mice (E. coli ATCC 25922 [6]; 5 mg/kg i.p. at 1 h and 4 h)	Therapeutic efficacy (survival) (E. coli ATCC 25922 [6]; 5 mg/kg i.p. at 1 h and 4 h, chloride form)	MIC, E. coli ML35p (E. coli ML35p; two-fold serial dilutions, 24 h incubation, resazurin read-out, median of at least three independent experiments in triplicate)	MIC, A. baumannii ([2]; strain XDR CI 2675, two-fold serial dilutions, 24 h incubation, resazurin read-out, median of at least three independent experiments in triplicate)	Survival of mice (E. coli ATCC 25922 [6]; 10 mg/kg i.p. at 1 h and 4 h)
CC(C)C[C@H](NC(=O)[C@H](CCCNC(=N)N)NC(=O)CNC(=O)CNC(=O)[C@@H](N)CCCNC(=N)N)C(=O)N[C@H]1CSSC[C@@H](C(=O)N[C@@H](C)C(=O)NCC(=O)N[C@@H](CCCNC(=N)N)C(=O)O)NC(=O)[C@H](C(C)C)NC(=O)[C@@H]2CSSC[C@H](NC(=O)[C@H](Cc3ccc(O)cc3)NC1=O)C(=O)N[C@@H](CCCNC(=N)N)C(=O)N[C@@H](CCCNC(=N)N)C(=O)N[C@@H](CCCNC(=N)N)C(=O)N[C@@H](Cc1ccccc1)C(=O)N2 [[V16A]] (H-RGGRLCYCRRRFCVCAGR-OH; disulfide 6-15, 8-13; N-terminus and C-terminus assumed)	1 µM (≈ 2.13 µg/mL)	1 µM (≈ 2.13 µg/mL)	1 µM (≈ 2.13 µg/mL)	0.25 µM (≈ 0.532 µg/mL)	0.125 µM (≈ 0.266 µg/mL)	0.125 µM (≈ 0.266 µg/mL)	0.5 µM (≈ 1.06 µg/mL)	0.4 µM	0.5 µM (≈ 1.06 µg/mL)	8.0 (± 5.35) %	47.8 (±11.96) %	0.25 µM (≈ 0.532 µg/mL)	0.5 µM (≈ 1.06 µg/mL)					
CC(C)C[C@H](NC(=O)[C@H](CCCNC(=N)N)NC(=O)CNC(=O)CNC(=O)[C@@H](N)CCCNC(=N)N)C(=O)N[C@H]1CSSC[C@@H](C(=O)N[C@@H](CCCNC(=N)N)C(=O)NCC(=O)N[C@@H](CCCNC(=N)N)C(=O)O)NC(=O)[C@H](C(C)C)NC(=O)[C@@H]2CSSC[C@H](NC(=O)[C@H](Cc3ccc(O)cc3)NC1=O)C(=O)N[C@@H](CCCNC(=N)N)C(=O)N[C@@H](CCCNC(=N)N)C(=O)N[C@@H](CCCNC(=N)N)C(=O)N[C@@H](Cc1ccccc1)C(=O)N2 [[V16R]] (H-RGGRLCYCRRRFCVCRGR-OH; disulfide 6-15, 8-13)	4 µM (≈ 8.85 µg/mL)	4 µM (≈ 8.85 µg/mL)	4 µM (≈ 8.85 µg/mL)	0.25 µM (≈ 0.553 µg/mL)	0.25 µM (≈ 0.553 µg/mL)	0.125 µM (≈ 0.277 µg/mL)	0.5 µM (≈ 1.11 µg/mL)	0.8 µM	1 µM (≈ 2.21 µg/mL)	80.0 (± 8.62) %	2.8 (±0.2) %	1 µM (≈ 2.21 µg/mL)	0.5 µM (≈ 1.11 µg/mL)	two out of five	60%			
CC(C)C[C@H](NC(=O)[C@H](CCCNC(=N)N)NC(=O)CNC(=O)CNC(=O)[C@@H](N)CCCNC(=N)N)C(=O)N[C@H]1CSSC[C@@H](C(=O)N[C@H](C(=O)NCC(=O)N[C@@H](CCCNC(=N)N)C(=O)O)C(C)C)NC(=O)[C@H](C(C)C)NC(=O)[C@@H]2CSSC[C@H](NC(=O)[C@H](CCCNC(=N)N)NC1=O)C(=O)N[C@@H](CCCNC(=N)N)C(=O)N[C@@H](CCCNC(=N)N)C(=O)N[C@@H](CCCNC(=N)N)C(=O)N[C@@H](Cc1ccccc1)C(=O)N2 [[Y7R]] (H-RGGRLCRCRRRFCVCVGR-OH; disulfide 6-15, 8-13; N-terminus and C-terminus assumed)	16 µM (≈ 34.4 µg/mL)	16 µM (≈ 34.4 µg/mL)	8 µM (≈ 17.2 µg/mL)	0.5 µM (≈ 1.07 µg/mL)			0.5 µM (≈ 1.07 µg/mL)	2.5 µM	2 µM (≈ 4.3 µg/mL)	67.6 (± 8.68) %	2.1 (±0.53) %	8 µM (≈ 17.2 µg/mL)	4 µM (≈ 8.6 µg/mL)			0.5 µM (≈ 1.07 µg/mL)	0.5 µM (≈ 1.07 µg/mL)	
O=C(O)c1cn(C2CC2)c2cc(N3CCNCC3)c(F)cc2c1=O [ciprofloxacin, reference compound]																		survival of all mice
